Test results: patent publication US20240208961A1, “EIF4E INHIBITORS AND USES THEREOF” (PIC Therapeutics, Inc., priority 2022, published 2024)
Several values for one entry are separate records, joined by “and”; a condition that tells them apart may be missing. Equal values may be shown once. Read-outs that look alike come from different tables or passages of the source.

Assay: Pharmacokinetic studies of certain compounds in female Balb/c mice (Example 5)
Type: in vivo
Details: I-1 PO 30 mg/kg
Experimental: Pharmacokinetic studies were performed using Balb/c mice, 15-20 g, 6-9 weeks, female, N=9, purchased from Jihui Laboratory Animal Co. LTD. For compound I-29, Balb/c mice, 19-21 g, 9-11 weeks, female, N=9, were used. The mice were fasted overnight and fed at 4 h post dosing.
Animals were dosed via oral gavage (PO) or tail vein injection (IV) with compound. Sampling occurred at 0.083, 0.25, 0.5, 1, 2, 4, 8, and 24 h post dose (8 time points). The animals were restrained manually at the designated time points. Approx. […] of blood was taken from the animals via facial vein for semi-serial bleeding into tubes with K2EDTA. Blood samples were put on ice and centrifuged at 4° C. (2000 g, 5 min) to obtain plasma within 15 min after sample collection. Plasma samples were stored in dry ice temporarily and at approximately −70° C. until analysis.
For oral gavage, the compound was dosed as a suspension in 1% sodium carboxymethyl cellulose (CMC) and 0.2% Tween 80 in water. For 23.8 mg/kg and 30 mg/kg doses, 3 mg/mL was used; for 50 mg/kg doses, 5 mg/mL was used; and for 100 mg/kg doses, 10 mg/mL was used.
For IV administration, the compound was dosed as a solution in 5% DMSO, 5% Solutol HS15 and 90% saline. For 1 mg/kg and 1.48 mg/kg doses, 0.2 mg/mL was used.
Plasma samples were analyzed using LC-MS using a calibration curve of known concentrations.
The results of these studies are summarized in Tables 11-21 below and in FIGS. 2-8. […] BQL=below quantifiable limit for compound in female Balb/c mouse plasma samples. NA=not available. PK parameters were estimated by non-compartmental model using WinNonlin 8.2. If the adjusted rsq (linear regression coefficient of the concentration value on the terminal phase) was less than 0.9, T1/2 might not have been accurately estimated. F value was determined by the following equation: • If AUClast/AUCINF>80%:
F=(AUCINF-EX×DOSEIV)/(AUCINF-IV×DOSEEX)[…] • If AUClast/AUCINF<80% or AUCINF not available:
F=(AUClast-EX×DOSEIV)/(AUClast-IV×DOSEEX)*1000

[1] = 24 hr, BQL = below quantifiable limit of 1 ng/mL

CC(C)Cc1sc(Nc2ncc(-c3cccs3)cc2C(=O)O)nc1C1=CCOCC1 [Compound I-1]
Plasma concentration Individual (0.083 hr, 30 mg/kg): 96.9 ng/mL and 51.8 ng/mL and 106 ng/mL | Plasma concentration Individual (0.25 hr, 30 mg/kg): 467 ng/mL and 432 ng/mL | Plasma concentration Individual (0.5 hr, 30 mg/kg): 464 ng/mL and 421 ng/mL | Plasma concentration Individual (1 hr, 30 mg/kg): 592 ng/mL and 498 ng/mL | Plasma concentration Individual (2 hr, 30 mg/kg): 367 ng/mL and 222 ng/mL | Plasma concentration Individual (4 hr, 30 mg/kg): 130 ng/mL and 153 ng/mL | Plasma concentration Individual (8 hr, 30 mg/kg): 78.9 ng/mL and 6.72 ng/mL and 12.2 ng/mL | Plasma concentration Individual [1]: BQL | Plasma concentration Mean [1]: BQL | concentration at 0.083 hr (female, Balb/c, mouse, plasma, po, 30 mg/kg, 0.083 hr, read-out: Plasma concentration Mean): 84.9 ng/mL | concentration at 0.25 hr (female, Balb/c, mouse, plasma, po, 30 mg/kg, 0.25 hr, read-out: Plasma concentration Individual): 383 ng/mL | concentration at 0.25 hr (female, Balb/c, mouse, plasma, po, 30 mg/kg, 0.25 hr, read-out: Plasma concentration Mean): 427 ng/mL | concentration at 0.5 h (female, Balb/c, mouse, plasma, po, 30 mg/kg, 0.5 hr, read-out: Plasma concentration Individual): 397 ng/mL | concentration at 0.5 h (female, Balb/c, mouse, plasma, po, 30 mg/kg, 0.5 hr, read-out: Plasma concentration Mean): 427 ng/mL | concentration at 1 h (female, Balb/c, mouse, plasma, po, 30 mg/kg, 1 hr, read-out: Plasma concentration Individual): 320 ng/mL | concentration at 1 hr (female, Balb/c, mouse, plasma, po, 30 mg/kg, 1 hr, read-out: Plasma concentration Mean): 470 ng/mL | concentration at 2 hr (female, Balb/c, mouse, plasma, po, 30 mg/kg, 2 hr, read-out: Plasma concentration Individual): 376 ng/mL | concentration at 2 hr (female, Balb/c, mouse, plasma, po, 30 mg/kg, 2 hr, read-out: Plasma concentration Mean): 322 ng/mL | concentration at 4 hr (female, Balb/c, mouse, plasma, po, 30 mg/kg, 4 hr, read-out: Plasma concentration Individual): 193 ng/mL | concentration at 4 hr (female, Balb/c, mouse, plasma, po, 30 mg/kg, 4 hr, read-out: Plasma concentration Mean): 159 ng/mL | concentration at 8 hr (female, Balb/c, mouse, plasma, po, 30 mg/kg, 8 hr, read-out: Plasma concentration Mean): 32.6 ng/mL | AUC(0-inf) (mouse, plasma): 1720 ng·h/mL | AUC(0-t) (mouse, plasma): 1640 ng·h/mL | Cmax (mouse, plasma): 470 ng/mL | MRT inf (mouse, plasma): 2.76 h | MRT last (mouse, plasma): 2.35 h | Tmax (mouse, plasma): 1 h | half-life (mouse, plasma): 1.81 h
